Laboratory results reported in patent US7164002B2, “FVIIa antagonists” (Genentech, Inc., priority 2002, dated 2007).

Tests used:
[1] = target: T1, TF-FVIIa (Homo sapiens, UniProt P08709); conditions: literature, cited from earlier work; for maximal extent of inhibition of the amidolytic activity: saturating concentrations of peptide
Target sequence in this assay (P13726 33-251 partner limits assumed, one chain of several): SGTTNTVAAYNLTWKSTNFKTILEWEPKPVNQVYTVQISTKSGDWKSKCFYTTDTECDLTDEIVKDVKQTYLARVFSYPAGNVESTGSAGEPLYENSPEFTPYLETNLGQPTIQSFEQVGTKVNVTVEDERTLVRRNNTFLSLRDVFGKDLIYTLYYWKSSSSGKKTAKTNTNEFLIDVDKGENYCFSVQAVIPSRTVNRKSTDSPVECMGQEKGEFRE

[2] = target: T1, TF-FVIIa; conditions: literature, cited from earlier work; for maximal inhibition of FX activation: saturating concentrations of peptide
Target sequence in this assay (P13726 33-275 partner limits assumed, one chain of several): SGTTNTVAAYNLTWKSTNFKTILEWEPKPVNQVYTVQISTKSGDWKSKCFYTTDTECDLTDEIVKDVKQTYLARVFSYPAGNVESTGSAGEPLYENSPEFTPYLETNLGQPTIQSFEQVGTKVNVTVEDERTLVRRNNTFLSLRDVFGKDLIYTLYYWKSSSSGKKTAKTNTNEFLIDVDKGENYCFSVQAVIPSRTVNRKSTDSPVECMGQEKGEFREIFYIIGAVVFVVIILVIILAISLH

[3] = target: T2, FVIIa (Homo sapiens, UniProt P08709); conditions: pH 7.2; read-out: binding constant Kd to FVIIa; cited from earlier work
T2 sequence (P08709 213-466 limits assumed): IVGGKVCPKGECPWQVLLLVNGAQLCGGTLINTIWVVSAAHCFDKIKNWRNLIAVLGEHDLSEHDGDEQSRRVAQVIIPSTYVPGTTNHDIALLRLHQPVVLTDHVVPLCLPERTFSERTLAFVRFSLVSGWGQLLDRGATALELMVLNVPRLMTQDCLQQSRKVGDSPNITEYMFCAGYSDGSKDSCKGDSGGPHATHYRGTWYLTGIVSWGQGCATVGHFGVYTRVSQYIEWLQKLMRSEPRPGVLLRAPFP
T2 sequence (P08709 61-212 limits assumed): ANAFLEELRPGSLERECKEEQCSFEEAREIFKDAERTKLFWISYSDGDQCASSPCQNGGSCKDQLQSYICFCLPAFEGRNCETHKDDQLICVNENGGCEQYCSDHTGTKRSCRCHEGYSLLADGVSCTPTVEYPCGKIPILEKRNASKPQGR

[4] = system: citrated pooled normal human plasma; assay: Prothrombin time (PT) clotting assay initiated by TF and Ca2+; type: biochemical; conditions: Innovin
Description: The prothrombin time (PT) assay was performed in citrated pooled normal human plasma as described previously (Dennis, M. S., et al., (2000) Nature, 404: 465–470). Clotting times were determined using an ACL 300 Coagulation Analyzer (Coulter Corp., Miami, Fla.) using Innovin (human relipidated TF and Ca2+) from Dade International Inc. to initiate the assay.

[5] = target: T1, TF-FVIIa; assay: Inhibition of TF-FVIIa catalyzed activation of FX; type: biochemical; conditions: saturating peptide
Target sequence in this assay (P13726 33-275 partner limits assumed, one chain of several): as the sequence (P13726 33-275 partner limits assumed, one chain of several) above
Description: Inhibition of FX activation by TF-VIIa was determined with 300 pM relipidated TF1-243, 20 pM FVIIa , and 165 nM FX at 25° C. as a function of peptide concentration essentially as described (Dennis, M. S., et al., (2000) Nature, 404: 465–470; Kelley, R. F., et al., (1997) Blood, 89: 3219–3227). TF was incorporated into phospholipid vesicles and quantified as previously described (Kelley, R. F., et al., (1997) Blood, 89: 3219–3227). The linear rates of FXa generation can be expressed as mOD405/min/min or as fractional activities (vi/v0).

Substance	maximal extent of inhibition of the amidolytic activity [1]	IC50 for inhibition of activation of FX to FXa by TF-FVIIa [2]	maximal inhibition of FX activation [2]	Kd [3]	fold prolongation of the clotting time [4]	inhibition of amidolytic activity (in words) [1]	extent of inhibition of FX activation upon saturation [5]
EEWEVACWTWETCER [Peptide E-76]	50%	nanomolar range	90%	–	–	–	–
EEWEVLCWTWETCER [Peptide A-183]	32%	nanomolar range	78%	2.8 nM	1.6 fold	potent but incomplete inhibition	–
Z-GGSGGDDDDK-EEWEVLCWTWETCER [Z-A-183]	–	–	–	–	–	–	80%
